We go through one compound from US20130059324A1, “SYSTEMS AND METHODS FOR MECHANICALLY STRAINED CELL CULTURE” (THE UNIVERSITY OF KANSAS, priority 2010, published 2013).

Each structure is given as a SMILES string.

Series [1] deals with A549 cells.
Method: After allowing the cells to adhere to the flexible membrane of the 96 well plate for 24 hours, the loading pins and the system described in FIG. 7 to implement mechanical strain were used to deliver 20% maximum strain for 2 seconds to the plate assigned for mechanical forces (+M Group), followed by 2 seconds of rest (15 cycles per minute with an average strain of 10% per cycle) in keeping with a normal human respiration.
In a parallel experiments, the cells were treated with anti-tumor drug after 72 hours of initial seeding (after 48 hours of mechanical stretching). The drug was dissolved in dimethyl sulfoxide (DMSO) at stock concentration and added to the respective media. […] The IC90 concentrations of the drugs were then added to prototype plate.
The +M Group was subjected to continuous mechanical stretching while the −M Group plate was placed in the same incubator for additional 24 hours.
In order to quantify viability, 6 wells per treatment group for ViCell counter and 6 wells per condition for MTS were assigned to determine the cell viability. Using Vi-Cell counter, assigned wells were filled with extra 210 μl of media to keep the volume constant in all the wells. Media from the assigned wells were transferred into a 24-well plate, and the well location was recorded. About 50 μl of trypLE was added to each well and allowed to trypsinize for a maximum of ten minutes. A small amount of media from the 24-well plate was transferred back into corresponding wells of the prototype plate to collect detached cells.
Media and cells were transferred back into the corresponding well of the 24-well plate. All wells were brought to a final volume of 1.25 mL with PBS and mixed well. About 1 ml of this cell suspension was transferred to ViCell counter to determine the number of viable cells.
Series [2] relates to NCI-H358 cells. In words: Drug exposure with or without simulated forces, 6-well Bioflex plates, live cell count and exponential growth model. The class given is cell-based, human. From the text: Treatments 1, 2 and 3 served as unstretched controls for Treatments 4, 5 and 6, respectively. For each cell line and drug, all treatments were independently repeated at least 3 times on different days, with 3 replicates per Treatments 1 and 4 (n=9) and 5 replicates per all other treatments (n=15).
The NCI-H358 (ATCC® CRL-5807) and A549 (ATCC® CCL-185) cell lines were obtained from American Type Culture Collection (ATCC, Manassas, Va.) and cultured in RPMI-1640 (NCI-H358) and HAM's F12K (A549) media containing 10% Fetal Bovine Serum (Sigma Aldrich, St. Louis, Mo.) and 1% Penicillin Streptomycin (Sigma Aldrich). Cells were passaged in 75 cm2 culture flasks at 37° C. in 5% CO2, and trypsinized using TryplE™ Express (Gibco) containing phenol red.
Cells were plated in 6-well Bioflex® plates (Flexcell® International Corporation, Hillsborough, N.C.). Each well of the plate has a flexible elastic membrane coated with a thin layer of type I collagen. Type I collagen was chosen since it more accurately represents the physiology of lung tumor cells in vivo. The Flexcell is not configured for drug studies as described herein, and had to be modified as described herein. […] Therefore, to have the same number of cells in culture at the time of drug exposure, initial seeding densities for treatments not involving simulated forces (Treatments 1-3) and those involving forces (Treatments 4-6) were adjusted for each cell line. In Treatments 1, 2 and 3, NCI-H358 and A549 cells were plated at a density of 100,000 and 20,000 cells/well in 2 ml of corresponding media, respectively. For treatments involving simulated forces (Treatments 4-6), NCI-H358 and A549 cells were plated at a density of 170,000 and 35,000 cells/well, respectively.
After allowing the cells to adhere to the membrane for 24 hours, the plates assigned for simulated forces were stretched using the FX-4000 Tension plus unit (Flexcell® International Corporation, Hillsborough, N.C.). The Flexcell unit was configured to deliver an alternating positive and negative pressure beneath the cell culture surfaces. Negative pressure pulls the culture surface down over a stationary Delrin post on the baseplate, delivering a uniform biaxial strain to the cells, and subsequent application of positive pressure releases this distension (FIGS. 9A and 9B.) In this manner, the alternating positive and negative pressure simulates forces experienced during respiration. Culture plates experiencing forces were fitted with rubber gaskets and placed on circular loading stations in the baseplate. […] Cells were preconditioned with mechanical forces for 48 hours, in an incubator at 37° C., 5% CO2 and 95% relative humidity.
After 72 hours of initial seeding, one of the five drugs was added to Treatments 3 and 6 of each cell line. […] The IC90, concentration of the drug that inhibits the growth of 90% of the cells in a static monolayer culture, was used to assure a significant inhibition in the absence of simulated forces. To insure comparability, an aliquot of 1 ml of media without the drug was added to each well in Treatments 2 and 5. After adding the drug or 1 ml of media, the plates from Treatments 5 and 6 were placed back on the baseplate and subjected to the same force profile as before for the remaining 72 hours. Plates from Treatments 2 and 3 (without forces) were placed in the same incubator for the remaining 72 hours.
Cells were trypsinized and counted at the end of day 3 in Treatments 1 and 4, and at the end of day 6 in the other treatments, using a Beckman Coulter Vi-Cell Analyzer (Beckman Coulter, Fullerton, Calif.). To examine changes in morphology, microphotographs of A549 and NCI-H358 cells were taken at the end of Treatments 1, 2, 4 and 5 using an Olympus inverted microscope and a 10× objective.
The standard exponential cell growth model (28) was used to describe the changes in live cell counts after each treatment. […]

For the compound `CC(=O)O[C@H]1C(=O)[C@@]2(C)[C@H]([C@H](OC(=O)c3ccccc3)[C@]3(O)C[C@H](OC(=O)[C@H](O)[C@@H](NC(=O)c4ccccc4)c4ccccc4)C(C)=C1C3(C)C)[C@]1(OC(C)=O)CO[C@@H]1C[C@@H]2O` [Paclitaxel], the “Effect of mechanical forces on viable cell count / cytotoxicity” value in series [1] is reported as “Statistically significant reduction”. For the same compound, the “Growth Rates, With forces” value in series [2] (drug at IC90 for 3 days, 20% maximum strain, 15 cycles/minute) is recorded as −0.276 per day. Besides, the “Growth Rates, Without forces” value in series [2] (drug at IC90 for 3 days, no forces) is given as −0.005 per day. In addition, the “Effectiveness of The Drug, Without forces (E)” value in series [2] (percentage reduction in live cell counts, 3-day drug exposure at IC90, no forces) was 70.5%. For the same compound, the “Effectiveness of The Drug, With forces (Ef)” value in series [2] (percentage reduction in live cell counts, 3-day drug exposure at IC90, simulated forces) is 66.8%.
